As a reminder, the IC80 is the point of the concentration-response curve where the effect stands at 80%. Broadly, the IC50 is the concentration that inhibits the measured activity by half.

Where “and” joins values, the source holds several entries; their conditions need not be identical. Identical values can stand only once. Some results are limits rather than exact numbers.

In data set [1] the test system is panel of Gram-positive and -negative pathogens. Briefly: Zone of inhibition assay. The format is cell-based. To be noted: 5 μL of 1 mM stock on nutrient agar, 37 °C, 24 h; radius ≤ 2 mm deemed not active. The protocol:
To do this, a zone of inhibition assay was used as a qualitative measure of activity. To do so, 5 μL of a 1 mM stock of the respective compound was pipetted atop nutrient agar which was previously spread with a panel of Gram-positive and -negative pathogens of interest. Following incubation at 37 °C for 24 h, zones of inhibition were measured and recorded for each compound. Zones with a radius ≤ 2 mm were deemed as not active, and thus eliminated from further study.

Details of data set [2]: method as in doi:10.1021/jo01097a026. Particulars: for the relevant substitution pattern; cited from earlier work.
A short description of data set [3]: Lucigenin Cl−/NO3− exchange assay in LUVs. Particulars: Cl− transport, 0.4 mM POPC/cholesterol 7:3 LUVs, Hill fit at 270 s. The protocol: Given our objective was to use such transport behaviour as a method to disrupt anion homeostasis in bacteria, we also conducted anion transport assays in Large Unilamellar Liposomes (LUVs) using the well-established Lucigenin-based Cl^−/NO3^− exchange assay.[40] Briefly, LUVs containing the chloride sensitive dye lucigenin in a NaNO3 solution were prepared and a NaCl pulse was added to create a chloride concentration gradient. Upon addition of the putative transporter, the quenching of the fluorescence of lucigenin was monitored over time to assess Cl^− influx.
Lucigenin Cl-/NO3- anion exchange assay
LUV preparation and Lucigenin assays were carried out following procedures outlined by Valkenier and co-workers.8 Large unilamellar liposomes (LUVs) were synthesized using 1-palmitoyl-2-oleoyl-sn-glycero-3-phosphocholine (POPC)(11.2 µmol, soln. in CHCl3) and Cholesterol (4.8 µmol) mixed in a ratio of 7:3. This mixture was brought to dryness under gentle vacuum and subsequently, the mixture was rehydrated in an aqueous Lucigenin solution (1 mL, 0.8mM lucigenin in 225 mM NaNO3) and stirred for 1 h to obtain heterogeneous vesicles. After that, the vesicles underwent 9 freeze-thaw cycles and were extruded through a […] polycarbonate membrane 29 times to obtain monodisperse LUVs. A Sephadex G-100 size-exclusion column was employed to remove any unencapsulated lucigenin. The collected liposomes were diluted to 40 mL with 225 mM NaNO3 to obtain a homogeneous 0.4 mM liposome solution. Lucigenin fluorescence quenching was monitored in a time dependent manner using an Agilent Spectrofluorimeter to access Cl- influx (λ ex = 430 nm, λem = 505 nm).
Cl- transport behaviour was initiated at t=0 s by adding each compound as a solvate in DMSO followed by a 25 mM NaCl pulse (75µL, 1 M NaCl in […] NaNO3) to a 3 mL liposome solution. The data was collected for at least 600 s and then Triton X-100 (5% w/w in water) was added to lyse the liposomes, and normalize to 100% efflux. The recorded data was normalised and the fraction fluorescence intensity at 270 s of each tested concentration of transporters (mol%) was plotted against transporter concentration (mol%). The data obtained was fitted to the Hill equation to obtain the EC50 value at 270 s (the concentration to obtain the half maximum effect) by using Originlab 2024b or Graphpad Prism 10:
y = START + (END ‒ START) ∗ xn/(kn + xn)
Where n is the Hill coefficient, k presents the EC 50 value.

Data set [4] is described as follows: 1H NMR titration with TBACl, Cl− binding. Particulars: association constant towards Cl−, compound 2.5 mM, 95% DMSO-d6, 1:1 binding model (Bindfit), errors below 10%. The protocol:
To verify if 1–6 formed host–guest complexes with Cl^− in solution, ^1H NMR titrations of each compound (2.5 mM) with TBACl were carried out in DMSO-d6. Increasing equivalents of Cl^− were incrementally added, with spectral information obtained upon addition of each molar equivalent of Cl^−. […] Taking 1 as an example (Fig. 2), upon addition of sequential aliquots of Cl^− there is a clear downfield shift of both squaramide NHs, with minor contributions to the binding cleft derived from the ortho-aryl protons of the aniline of 1. The binding data from each titration was fitted to a 1 : 1 binding model using the Bindfit[36] open access software, and the results are tabulated below (Table 1), alongside the respective Hammett constant for the relevant substitution pattern.[37] […] This aligns with previously reported receptors,[38] where compounds containing CF3 substituents in particular are known to have increased anion binding affinity as well as transport ability.[39]

A further data set concerns S. aureus. Briefly: Growth inhibition assay, S. aureus. Particulars: 24 h, growth (OD 600 nm) relative to control, 37 °C; for IC80 / IC50: Staphylococcus aureus. The class given is cell-based, Staphylococcus aureus. On the procedure: (§1) To determine IC50/80 values, growth (optical density) of S. aureus, methicillin-resistant S. aureus (MRSA), P. aeruginosa, and K. pneumoniae when treated with a range of concentrations of each active compound in vitro was measured at 600 nm after a 24 h incubation period at 37 °C. Each compound was studied for activity below […], and those showing little activity above 200 μM, were noted as such, and omitted from further study.
Staphylococcus aureus culture conditions
S. aureus (ATCC33951) was cultured at 37 °C in Nutrient broth (Oxoid), in an orbital shaker at 200 rpm. Stocks were kept on nutrient agar, stored at 4 °C for up to 2 months, or as glycerol stocks (50/50 glycerol:culture), stored at -70 °C indefinitely. […]
(§2) Bacterial cultures were brought to early stationary phase overnight, in nutrient broth (containing 25/50 µg/mL Ampicillin for MRSA/K. pneumoniae, respectively) at 37 °C. Cultures were diluted to an OD600 = 0.01. Aliquots of Culture (100 µl) were added to 100 µL serially diluted compound (200 – 0.78 µM) in nutrient broth in a 96-well plate (Sarstedt, Germany).
(§3) Plates were incubated at 37 °C for 24 h and growth was measured at 600 nm, where growth was measured and represented relative to control. […]

Data set [5] deals with methicillin-resistant S. aureus (MRSA). Put plainly: Growth inhibition assay, MRSA. The class given is cell-based, Staphylococcus aureus. Particulars: 24 h; for IC50 / IC80: Staphylococcus aureus, MRSA; for IC50: read-out: MRSA IC50, growth (OD 600 nm) relative to control, 24 h, 37 °C; for IC80: read-out: MRSA IC80, growth (OD 600 nm) relative to control, 24 h, 37 °C; for MRSA IC50: growth (OD 600 nm) relative to control, 37 °C. On the procedure:
as §1
Staphylococcus aureus culture conditions […]
Methicillin-resistant Staphylococcus aureus culture conditions
Methicillin-resistant S. aureus (clinical isolate – St. James’ University Hospital, Dublin) was cultured at 37 °C in Nutrient broth (Oxoid), containing 25 µg/mL Ampicillin in an orbital shaker at 200 rpm. Stocks were kept on nutrient agar containing 25 µg/mL Ampicillin, stored at 4 °C for up to 2 months, or as glycerol stocks (50/50 glycerol:culture), stored at -70 °C indefinitely. […]
as §2, §3

As for `O=c1c(Nc2ccc(Cl)cc2)c(NC23CC4CC(CC(C4)C2)C3)c1=O` [Compound 3], the “zone of inhibition, qualitative measure of activity” value in data set [1] was “promising bioactivity”. Moreover, the “Hammett parameter (σ)” value in data set [2] is on record as 0.23. Moreover, in data set [3], the “EC50 (mol%)” value was 0.2597 mol% and 0.260 mol%. Further, the “K a” value in data set [4] is 207 M⁻¹. In the data set on S. aureus, the IC80 was above 200 µM, the IC50 was above 200 µM and the “S. aureus IC50” value was “lay outside the concentration range tested”. Further, in data set [5], the IC50 is above 200 µM, the IC80 is above 200 µM and the “MRSA IC50” value is “lay outside the concentration range tested”.
On to `O=c1c(Nc2ccccc2Cl)c(NC23CC4CC(CC(C4)C2)C3)c1=O` [Compound 5], for which, in data set [1], the “zone of inhibition, qualitative measure of activity” value is listed as “promising bioactivity”. In addition, the “EC50 (mol%)” value in data set [3] is 1.349 mol%. In addition, the “K a” value in data set [4] stood at 44 M⁻¹. For the same compound, in the data set on S. aureus, the IC80 is above 200 µM, the IC50 was above 200 µM and the “S. aureus IC50” value was “lay outside the concentration range tested”. Also, in data set [5], the IC50 was above 200 µM, the concentration for an effect of 80% (IC80) was above 200 µM and the “MRSA IC50” value was “lay outside the concentration range tested”.
Take `O=c1c(Nc2ccccc2)c(NC23CC4CC(CC(C4)C2)C3)c1=O` [Compound 6]: the “Hammett parameter (σ)” value in data set [2] is 0.0. Besides, the “K a” value in data set [4] worked out at 138 M⁻¹. Moreover, in the data set on S. aureus, the IC80 is above 200 µM, the IC50 is above 200 µM and the “S. aureus IC50” value was “lay outside the concentration range tested”. In data set [5], the IC50 is above 200 µM, the IC80 was above 200 µM and the “MRSA IC50” value is “lay outside the concentration range tested”.

Source of the values: publication PMC11788822, “Uncovering the potent antimicrobial activity of squaramide based anionophores – chloride transport and membrane disruption” (Chemical Science, 2025).
